Molecular target: Transient receptor potential cation channel subfamily V member 1 (Rattus norvegicus, UniProt O35433)
Test: Agonist activity at rat TRPV1 expressed in CHO cells assessed as maximal calcium uptake

Chain of Transient receptor potential cation channel subfamily V member 1 (O35433 whole entry): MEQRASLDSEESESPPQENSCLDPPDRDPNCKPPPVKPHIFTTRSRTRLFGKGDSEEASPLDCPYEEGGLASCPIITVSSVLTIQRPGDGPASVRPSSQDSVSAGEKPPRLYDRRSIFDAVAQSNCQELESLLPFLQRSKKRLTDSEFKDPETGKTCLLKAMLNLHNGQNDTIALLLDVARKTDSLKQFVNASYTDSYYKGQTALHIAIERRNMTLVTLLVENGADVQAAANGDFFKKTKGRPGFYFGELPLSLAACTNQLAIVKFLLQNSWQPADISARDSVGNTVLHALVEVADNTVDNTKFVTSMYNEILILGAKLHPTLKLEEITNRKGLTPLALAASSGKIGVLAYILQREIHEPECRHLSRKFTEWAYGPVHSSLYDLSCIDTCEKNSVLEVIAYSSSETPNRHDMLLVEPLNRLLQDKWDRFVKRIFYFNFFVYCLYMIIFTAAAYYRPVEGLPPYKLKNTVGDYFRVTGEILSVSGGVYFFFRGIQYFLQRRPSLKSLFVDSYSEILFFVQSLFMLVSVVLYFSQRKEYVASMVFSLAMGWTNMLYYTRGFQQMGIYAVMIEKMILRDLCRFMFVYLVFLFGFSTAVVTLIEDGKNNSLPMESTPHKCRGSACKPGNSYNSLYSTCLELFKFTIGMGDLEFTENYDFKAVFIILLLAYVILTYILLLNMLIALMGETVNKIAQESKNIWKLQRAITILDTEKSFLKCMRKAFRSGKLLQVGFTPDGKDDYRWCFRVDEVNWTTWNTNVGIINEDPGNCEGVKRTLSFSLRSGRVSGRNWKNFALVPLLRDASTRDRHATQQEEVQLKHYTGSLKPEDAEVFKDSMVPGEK

`COc1cc(CNC(=S)NC(COC(=O)C(C)(C)C)Cc2ccc(C(C)(C)C)cc2)ccc1O` (stereo unspecified) [2-(3-(4-hydroxy-3-methoxybenzyl)thioureido)-3-(4-tert-butylphenyl)propyl pivalate] showed an EC50 of 5.7 nM.
